Measured values as given in patent publication US20060030616A1, “Anhydride modified cantharidin analogues useful in the treatment of cancer” (priority 1998, published 2006).
Where two headings read alike, the source gives them in different places.

Experiments:
L1210 cells = test: Cell cycle analysis, flow cytometry of propidium iodide stained cells; type: cell-based, murine; details: for Cell Cycle Distribution, G1 / Cell Cycle Distribution, G2 + M / Cell Cycle Distribution, S / Cell Cycle Distribution, sub G1 / Cell cycle remark: 12 h; for Cell cycle response: L1210, 12 h exposure
Method: The cells are fixed in 70% ethanol and stored at −20° C. until analysis is performed (1-2 weeks). After fixing, the cells are pelleted and incubated in PBS containing propidium iodide ([…]) and RNase A (200 mg/ml) for at least 30 min at room temperature. The samples (2×10^4 events) are analysed using a Becton Dickson FACScan, fluorescence is collected in fluorescence detector 2 (FL2), filter 575/30 nm band pass. Cell cycle distribution is assessed using Cell Quest software (Becton Dickson).
The ability of the protein phosphatase inhibitors to abrogate the G1 or G2 checkpoint of the cell cycle may be determined by cell cycle analysis using flow cytometry. Briefly, asynchronous cell cultures are harvested 18 h after 6 Gy irradiation and/or 12 h incubation with the protein phosphatase inhibitor. Depending upon the p53 status of the cell line, radiation treatment alone will induce arrest in either G1 and/or G2 phase of the cell cycle.
Data shown in Table 2 and FIG. 4 show the cell cycle response of L1210, HL60, HT29 and HCT116 cells to cantharidin and the new cantharidin analogues MK-2 and MK-4 after 12 h exposure. In summary, cantharidin and MK-2 produced a similar response and induced G2 arrest in all four cell lines tested. […] HL60 and HCT116 cells. […] The magnitude of the cell cycle arrest induced by these drugs directly correlated with their cytotoxicity in the respective cell lines. […] The cytotoxicity of the […]

ADDP cells = test: MTT cytotoxicity assay, 72 h; type: cell-based, human; details: p53 mt, read-out: IC50 (mean ± SE) after 72 h continuous exposure
Procedure, shortened: (§1)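 Absorbance at 540 nm of solubilized MTT formazan measures viable cells after 72 h inhibitor exposure. Cells are plated 24 h ahead to reach exponential growth, with L1210 at 1000 cells/well. IC50 comes from the dose-response of growth between day 0 and day 3.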

HL60 cells = test: MTT cytotoxicity assay, 72 h; type: cell-based, human; details: HL60, p53 nul, read-out: IC50 (mean ± SE) after 72 h continuous exposure
Procedure, shortened: as §1

A2780 cells = test: MTT cytotoxicity assay, 72 h; type: cell-based, human; details: A2780, p53 wt; read-out: IC50 (mean ± SE) after 72 h continuous exposure
Procedure, shortened: as §1

HCT116 cells [1] = test: MTT cytotoxicity assay, 72 h; type: cell-based, human; details: HCT116, p53 wt, read-out: IC50 (mean ± SE) after 72 h continuous exposure
Procedure, shortened: as §1

HT29 cells [2] = test: MTT cytotoxicity assay, 72 h; type: cell-based, human; details: HT29, p53 mt, read-out: IC50 (mean ± SE) after 72 h continuous exposure
Procedure, shortened: as §1

SW480 cells = test: MTT cytotoxicity assay, 72 h; type: cell-based, human; details: SW480, p53 mt, read-out: IC50 (mean ± SE) after 72 h continuous exposure
Procedure, shortened: as §1

143B cells = test: MTT cytotoxicity assay, 72 h; type: cell-based, human; details: p53 mt, read-out: IC50 (mean ± SE) after 72 h continuous exposure
Procedure, shortened: as §1

HCT116 cells [3] = test: Combination studies, Median Effect Method (MTT); type: cell-based, human; details: simultaneous
Method: (§2) Those protein phosphatase inhibitors which show abrogation of either the G1 or G2 checkpoint will then be exploited in combination studies with either radiation exposure or chemotherapy drugs incubation. The MTT (3-[4,5-dimethylthiazol-2-yl]2,5-diphenyl-tetrazolium bromide) assay is used to determine whether a synergistic, antagonistic or additive effect is induced. The Median Effect method is adopted to mathematically determine the optimal combination index of the treatments chosen (Chou and Talalay, 1984). This method has been extensively used to investigate the cytotoxicity of various drug combinations including cisplatin and D1694 (Ackland et al 1996; 1998). A combination index value less than 1 indicates synergism, a value equal to 1 indicates additivity and a value greater than one indicates antagonism.
(§3) The cell lines listed above are exposed continuously to cisplatin and the phosphatase inhibitor in various drug ratio combinations for 72 h and then assayed for cytotoxicity; Similarly, the cells are exposed to 8 Gy of radiation and incubated with the phosphatase inhibitor and assessed for cytotoxicity at 72 h.
(§4) This method tests the cytotoxicity of various drug combinations from which a combination index can be calculated. A value of greater than one indicated antagonism, a value equal to 1 indicates additivity, while a value less than one indicates synergism. The HT29 and HCT116 cell lines were chosen as they have differing p53 status and they represent the tumour types that responded the greatest to cantharidin and its analogues.

HT29 cells [4] = test: Combination studies, Median Effect Method (MTT); type: cell-based, human; details: simultaneous
Method: as §2, §3, §4

SMILES	Cell Cycle Distribution, G1 (L1210 cells; L1210, 50 μM)	Cell Cycle Distribution, G2 + M (L1210 cells; L1210, 50 μM)	Cell Cycle Distribution, S (L1210 cells; L1210, 50 μM)	Cell Cycle Distribution, sub G1 (L1210 cells; L1210, 50 μM)	Cell Cycle Distribution, G1 (L1210 cells; L1210, 100 μM)	Cell Cycle Distribution, G2 + M (L1210 cells; L1210, 100 μM)	Cell Cycle Distribution, S (L1210 cells; L1210, 100 μM)	Cell Cycle Distribution, sub G1 (L1210 cells; L1210, 100 μM)	Cell Cycle Distribution, G1 (L1210 cells; L1210, 250 μM)	Cell Cycle Distribution, G2 + M (L1210 cells; L1210, 250 μM)	Cell Cycle Distribution, S (L1210 cells; L1210, 250 μM)	Cell Cycle Distribution, sub G1 (L1210 cells; L1210, 250 μM)	Cell Cycle Distribution, G1 (L1210 cells; L1210, 500 μM)	Cell Cycle Distribution, G2 + M (L1210 cells; L1210, 500 μM)	Cell Cycle Distribution, S (L1210 cells; L1210, 500 μM)	Cell Cycle Distribution, sub G1 (L1210 cells; L1210, 500 μM)	Cell cycle remark (L1210 cells; L1210, 500 μM)	Cell cycle response (L1210 cells)	IC50 (ADDP cells)	IC50 (HL60 cells)	other results
O=C1OC(O)C2C3CCC(O3)C12 (stereo not drawn) [MK-4]	42.0 percentage of total	32.0 percentage of total	26.9 percentage of total	0.5 percentage of total	43.2 percentage of total	32.5 percentage of total	25.4 percentage of total	0.4 percentage of total	45.7 percentage of total	30.5 percentage of total	24.6 percentage of total	0.5 percentage of total	47.5 percentage of total	33.9 percentage of total	18.6 percentage of total	1.1 percentage of total	Slight Δ	G2 arrest	275 ± 56 µM	393 ± 103 µM	IC50 (A2780 cells): 333 ± 55 µM; IC50 (HCT116 cells [1]): 78 ± 7 µM; IC50 (HT29 cells [2]): 14 µM; IC50 (SW480 cells): 88 ± 5 µM; IC50 (143B cells): 450 µM; Combination response with taxotere (HCT116 cells [3]): synergistic; Combination response with cisplatin (HCT116 cells [3]; molar ratios 1:1, 10:1, 1:10): additive; Combination response with cisplatin (HT29 cells [4]; molar ratios 1:1, 10:1, 1:10): additive; Combination response with taxotere (HT29 cells [4]; ratios 1:10, 1:100, 1:1000 (Taxotere: MK-4)): additive
O=C1OC(=O)C2C3C=CC(O3)C12 (stereo not drawn) [MK-2]	42.7 percentage of total	31.7 percentage of total	26.2 percentage of total	0.3 percentage of total	45.2 percentage of total	32.4 percentage of total	22.4 percentage of total	0.6 percentage of total	46.7 percentage of total	36.7 percentage of total	14.3 percentage of total	2.4 percentage of total	26.3 percentage of total	60.0 percentage of total	10.1 percentage of total	3.9 percentage of total	G2 arrest	G2 arrest	183 ± 17 µM	177 ± 3 µM	IC50 (A2780 cells): 157 ± 9 µM; IC50 (HCT116 cells [1]): 160 ± 10 µM; IC50 (HT29 cells [2]): 183 ± 20 µM; IC50 (SW480 cells): 155 ± 9 µM; IC50 (143B cells): 248 ± 29 µM
C[C@@]12C(=O)OC(=O)[C@]1(C)[C@H]1CC[C@@H]2O1 [Cantharidin, exo.exo-2.3-dimethyl-7-oxobicyclo[2.2.1]heptane-2,3-dicarboxylic acid anhydride]	22.0 percentage of total	50.6 percentage of total	27.8 percentage of total	1.9 percentage of total	–	–	–	–	–	–	–	–	–	–	–	–	–	G2 arrest	–	–	Cell Cycle Distribution, G1 (L1210 cells; L1210, 1 μM): 45.8 percentage of total; Cell Cycle Distribution, G2 + M (L1210 cells; L1210, 1 μM): 21.6 percentage of total; Cell Cycle Distribution, S (L1210 cells; L1210, 1 μM): 33.7 percentage of total; Cell Cycle Distribution, sub G1 (L1210 cells; L1210, 1 μM): 0.5 percentage of total; Cell Cycle Distribution, G1 (L1210 cells; L1210, 5 μM): 46.5 percentage of total; Cell Cycle Distribution, G2 + M (L1210 cells; L1210, 5 μM): 21.9 percentage of total; Cell Cycle Distribution, S (L1210 cells; L1210, 5 μM): 32.6 percentage of total; Cell Cycle Distribution, sub G1 (L1210 cells; L1210, 5 μM): 0.6 percentage of total; Cell Cycle Distribution, G1 (L1210 cells; L1210, 10 μM): 49.1 percentage of total; Cell Cycle Distribution, G2 + M (L1210 cells; L1210, 10 μM): 18.9 percentage of total; Cell Cycle Distribution, S (L1210 cells; L1210, 10 μM): 33.0 percentage of total; Cell Cycle Distribution, sub G1 (L1210 cells; L1210, 10 μM): 0.5 percentage of total; Cell cycle remark (L1210 cells; L1210, 50 μM): G2 arrest; IC50 (ADDP cells; Homo sapiens, 72 h): 12 ± 0.8 µM; IC50 (HL60 cells; Homo sapiens, HL-60, 72 h): 13 µM; IC50 (HCT116 cells [1]; Homo sapiens, HCT-116, 72 h): 12 µM; IC50 (HT29 cells [2]; Homo sapiens, HT-29, 72 h): 6.4 ± 0.7 µM; IC50 (SW480 cells; Homo sapiens, 72 h): 17.5 µM; IC50 (143B cells; Homo sapiens, 72 h): 10.2 ± 1.2 µM
